In one experiment the target is T1, Estrogen receptor (Homo sapiens, UniProt P03372).
T1 sequence (P03372 whole entry): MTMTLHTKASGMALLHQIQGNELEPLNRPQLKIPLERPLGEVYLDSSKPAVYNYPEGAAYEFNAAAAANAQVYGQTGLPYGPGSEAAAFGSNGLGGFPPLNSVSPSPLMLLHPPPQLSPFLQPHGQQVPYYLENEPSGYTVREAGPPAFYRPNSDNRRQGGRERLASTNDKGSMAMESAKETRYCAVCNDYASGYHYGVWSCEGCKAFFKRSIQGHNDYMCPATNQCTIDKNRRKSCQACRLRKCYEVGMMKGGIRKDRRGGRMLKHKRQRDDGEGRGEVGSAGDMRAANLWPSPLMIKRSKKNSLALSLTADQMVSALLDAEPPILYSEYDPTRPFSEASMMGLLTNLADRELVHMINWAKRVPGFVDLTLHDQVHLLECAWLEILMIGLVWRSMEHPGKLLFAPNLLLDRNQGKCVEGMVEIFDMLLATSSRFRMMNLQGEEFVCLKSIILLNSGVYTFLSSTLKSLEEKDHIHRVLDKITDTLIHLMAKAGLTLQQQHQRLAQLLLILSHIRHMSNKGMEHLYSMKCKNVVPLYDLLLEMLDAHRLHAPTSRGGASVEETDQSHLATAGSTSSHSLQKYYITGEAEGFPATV

For experiment [1], the system named is MDA-MB-231. Nature of the experiment: Inhibition of cell proliferation in human ERalpha receptor negative MDA-MB-231 cells after 6 days by crystal violet staining method. In kind it is functional, cell-based.
Experiment [2] has as its target Estrogen receptor alpha (Homo sapiens) (UniProt P03372). Nature of the experiment: Agonist activity at ERalpha receptor in human HeLa cells assessed as activation of ERalpha-based transcription at 100 nM after 20 to 24 hrs by luciferase reporter gene assay. Background: In a reporter assay the amount or activity of a reporter protein is the signal.
The subject of experiment [3] is MDA-MB-231. Put plainly: Stimulation of cell proliferation in human ERalpha receptor negative MDA-MB-231 cells after 6 days by crystal violet staining method. In kind it is functional, cell-based.
Experiment [4] has as its target Estrogen receptor alpha (Homo sapiens) (UniProt P03372). Put plainly: Partial agonist activity at ERalpha receptor in human HeLa cells assessed as activation of ERalpha-based transcription at 100 nM after 20 to 24 hrs by luciferase reporter gene assay.
A further experiment addresses Estrogen receptor beta (Homo sapiens, UniProt Q92731).
Experiment [5] concerns the target Estrogen receptor alpha (Homo sapiens) (UniProt P03372). Nature of the experiment: Agonist activity at LBD of ERalpha receptor in human HeLa cells assessed as induction of receptor-SRC-1 interaction at 100 nM after 20 to 24 hrs by luciferase reporter gene assay.
Experiment [6] shares this target. Nature of the experiment: Agonist activity at ERalpha receptor in human MCF7 cells assessed as stimulation of cell proliferation after 6 days by crystal violet staining method.
The target is the same in experiment [7]. Put plainly: Agonist activity at ERalpha receptor in human HepG2 cells assessed as activation of ERalpha-based transcription at 100 nM after 20 to 24 hrs by luciferase reporter gene assay.
For experiment [8] the target is unchanged. Put plainly: Antagonist activity at ERalpha receptor in human HeLa cells assessed as inhibition of E2-induced response after 20 to 24 hrs by luciferase reporter gene assay.

Activity calls are given as the source filed them. No cut-off for these calls is given here.

The results in this text go back to ChEMBL document CHEMBL2321717, “Synthesis of novel estrogen receptor antagonists using metal-catalyzed coupling reactions and characterization of their biological activity” (J Med Chem, 2013).

Chain of Estrogen receptor beta (Q92731 whole entry, the tested form may be a part): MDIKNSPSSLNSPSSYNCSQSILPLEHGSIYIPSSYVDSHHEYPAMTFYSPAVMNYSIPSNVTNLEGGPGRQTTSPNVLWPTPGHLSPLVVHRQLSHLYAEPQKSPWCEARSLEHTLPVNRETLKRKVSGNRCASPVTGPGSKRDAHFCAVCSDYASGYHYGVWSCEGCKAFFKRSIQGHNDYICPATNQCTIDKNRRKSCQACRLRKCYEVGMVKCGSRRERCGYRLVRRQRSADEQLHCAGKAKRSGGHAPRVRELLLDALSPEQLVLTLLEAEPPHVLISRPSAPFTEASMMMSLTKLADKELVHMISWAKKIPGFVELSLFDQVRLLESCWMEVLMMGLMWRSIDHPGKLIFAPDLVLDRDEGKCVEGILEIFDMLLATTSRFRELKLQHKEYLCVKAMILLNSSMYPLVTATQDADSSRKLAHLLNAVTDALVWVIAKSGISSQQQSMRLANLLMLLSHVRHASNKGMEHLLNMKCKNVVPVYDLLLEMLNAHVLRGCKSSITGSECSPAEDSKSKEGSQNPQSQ

By IC50 is commonly meant the point on the concentration scale where inhibition reaches its midpoint. Read a high IC50 as a need for much substance. For the compound `CC(C)(C)OC(=O)N1CCN(c2ccc(C#CCCCC[C@@H]3Cc4cc(O)ccc4[C@H]4CC[C@]5(C)[C@@H](O)CC[C@H]5[C@H]34)cc2)CC1`, the values for the half-inhibitory concentration (IC50) against Estrogen receptor and against Estrogen receptor beta were 567 nM and 436 nM, respectively. Besides, the outcome in the experiment on MDA-MB-231 [1] and with MDA-MB-231 [3] was inactive. Besides, the outcome in experiment [2] and in experiment [4] was Active.
With `CCOC(=O)C(Cc1ccc(C#CCCCC[C@@H]2Cc3cc(O)ccc3[C@H]3CC[C@]4(C)[C@@H](O)CC[C@H]4[C@H]23)cc1)C(=O)OCC`, the IC50 was determined as 126 nM against Estrogen receptor and 151 nM at Estrogen receptor beta. The result in experiment [5], in [2] and in experiment [6] was Active.
Take `C[C@]12CC[C@@H]3c4ccc(O)cc4C[C@@H](CCCCC#Cc4ccc(-c5ccno5)cc4)[C@H]3[C@@H]1CC[C@@H]2O`: the result in the experiment with MDA-MB-231 [1] and with MDA-MB-231 [3] was inactive. The outcome in [2] and in experiment [4] was Active. Moreover, in experiment [7], the Activity is 50%.
As for `C[C@]12CC[C@@H]3c4ccc(O)cc4C[C@@H](CCCCC#Cc4ccc(CN5CCCCC5)cc4)[C@H]3[C@@H]1CC[C@@H]2O`, at Estrogen receptor, half-maximal inhibition (IC50) was put at 638 nM. Further, the result in experiment [5], in experiment [2] and in [6] was Active.
Take `C[C@]12CC[C@@H]3c4ccc(O)cc4C[C@@H](CCCCc4cn(CC5COc6ccccc6O5)nn4)[C@H]3[C@@H]1CC[C@@H]2O` (some centres not stated): the results for the 50% inhibitory concentration (IC50) on Estrogen receptor and at Estrogen receptor beta were 24.4 nM and 41.2 nM, respectively. In addition, the Activity in experiment [7] came to 50%. Further, the outcome in [8] was Active.
For `C[C@]12CC[C@@H]3c4ccc(O)cc4C[C@@H](CCCCC#Cc4ccc5ccccc5c4)[C@H]3[C@@H]1CC[C@@H]2O`, the 50% inhibitory concentration (IC50) at Estrogen receptor was found to be 176 nM. The outcome in experiment [5], in experiment [2] and in [6] was Active.
With `CCOC(=O)CC(=O)c1ccc(C#CCCCC[C@@H]2Cc3cc(O)ccc3[C@H]3CC[C@]4(C)[C@@H](O)CC[C@H]4[C@H]23)cc1`, the half-maximal inhibitory concentration (IC50) against Estrogen receptor was found to be 96.5 nM; against Estrogen receptor beta it was 185 nM. The outcome in experiment [5], in experiment [2] and in experiment [6] was Active.
The compound `C[C@]12CC[C@@H]3c4ccc(O)cc4C[C@@H](CCCCC#Cc4ccc(-n5cccc5)cc4)[C@H]3[C@@H]1CC[C@@H]2O` came in with a concentration for half-maximal inhibition (IC50) against Estrogen receptor of 28.3 nM. The result in experiment [5], in experiment [2] and in experiment [6] was Active.
